Molecules are shown by their SMILES. “Also recorded” adds a separate entry of the source. Like-named read-outs stand apart in the source and are kept apart here. Where only a bound is given, the exact number is not on record here.

In assay [1] the target is T1, Klenow fragment (KF exo−) (Escherichia coli, UniProt P00582, D355A/E357A).
T1 construct: Large fragment of DNA polymerase Exonuclease-free Klenow enzyme (Cloned) (Amersham USB); purchased Amersham USB
Type of assay: biochemical, E. coli. The note with it: for efficiency (Vmax/Km) / Km / Vmax: template base N = label; for Vmax: normalized to enzyme concentration 20 nM. The text has this:
This example was intended to analyze reaction rate constants in the same Klenow fragment-mediated single nucleotide insertion reaction as shown in Example 2.
More specifically, the reaction primer used was a primer whose 5′-end was fluorescently labeled with 6-FAM (SEQ ID NO: 1, FIG. 10). The primer whose 5′-end was fluorescently labeled was purchased from Applied Biosystems among those commercially available as custom fluorescent primers for GeneScan, and purified by gel electrophoresis. The analysis of reaction products was performed with a DNA sequencer (Applied Biosystems; model ABI377).
Reaction conditions: Template DNA (SEQ ID NO: 2 or 3) (10 μM) and the fluorescently-labeled primer (10 μM), each of which had been dissolved in 2× reaction buffer (100 mM Tris-HCl pH 7.5, 20 mM MgCl2, 2 mM DTT, 100 μg/ml BSA), were heated at 95° C. for 3 minutes and then annealed by quenching to form a duplex between the template and the primer. After this duplex DNA solution was dispensed in 5 μl aliquots, a KF exo^− solution (15-250 nM) diluted with enzyme dilution buffer was added in a volume of 2 μl, followed by incubation at 37° C. for 2 minutes to form a DNA-enzyme complex. The resulting solution was supplemented with 3 μl dNTP solution (any one of A, G, C, T or y) (100 μM-7 mM) and enzymatically reacted at 37° C. (1.5-20 minutes). The reaction was stopped by adding 10 μl of a 95% formamide solution containing 20 mM EDTA (stop solution) and heating at 75° C. for 3 minutes.
The reaction conditions are summarized as follows: 5 μM template-primer duplex, 3-50 nM enzyme and 30-2100 μM dNTP are used in a solution (10 μl). The solution (10 μl) contains 50 mM Tris-HCl (pH 7.5), 10 mM MgCl2, 1 mM DTT and 0.05 mg/ml BSA. The reaction is performed at 37° C. for 1.5-20 minutes.
After aliquot parts of the reaction solutions were diluted 50-fold with the stop solution, the thus diluted reaction solutions (0.5 μl) were each mixed with 3 μl loading solution (deionized formamide:50 mg/mL blue dextran solution containing 25 mM EDTA=5:1), heated at 90° C. for 2 minutes and then quenched on ice. Aliquots (about 0.5 μl) of the resulting solutions were loaded on every other lane of a sequence gel and electrophoresed. The sequence gel (36 cm WTR) has the following composition: 6 M urea, 8% polyacrylamide (acrylamide:bisacrylamide=19:1), and 0.5×TBE. The electrophoresis buffer used was 0.5×TBE. The run module used was GS Run 36C-2400. The electrophoresis time was set to about 1 hour, and peak patterns of the reaction products were analyzed and quantified using GeneScan Software (Version 3.0).
Using the peak heights of the unreacted primer fragment and single nucleotide-inserted DNA fragments, the percentage of each primer elongated by a single nucleotide was determined to calculate enzymological parameters Km and Vmax from Hanes-Woolf plots (Goodman, M. F., Creighton, S., Bloom, L. B., Petruska, J. Crit. Rev. Biochem. Mol. Biol., 28, 83-126 (1993)).

Another assay deals with T2, T7 RNA polymerase (Escherichia phage T7, UniProt P00573).
T2 construct: purchased TAKARA SHUZO CO., LTD (TaKaRa)
T2 sequence (P00573 whole entry): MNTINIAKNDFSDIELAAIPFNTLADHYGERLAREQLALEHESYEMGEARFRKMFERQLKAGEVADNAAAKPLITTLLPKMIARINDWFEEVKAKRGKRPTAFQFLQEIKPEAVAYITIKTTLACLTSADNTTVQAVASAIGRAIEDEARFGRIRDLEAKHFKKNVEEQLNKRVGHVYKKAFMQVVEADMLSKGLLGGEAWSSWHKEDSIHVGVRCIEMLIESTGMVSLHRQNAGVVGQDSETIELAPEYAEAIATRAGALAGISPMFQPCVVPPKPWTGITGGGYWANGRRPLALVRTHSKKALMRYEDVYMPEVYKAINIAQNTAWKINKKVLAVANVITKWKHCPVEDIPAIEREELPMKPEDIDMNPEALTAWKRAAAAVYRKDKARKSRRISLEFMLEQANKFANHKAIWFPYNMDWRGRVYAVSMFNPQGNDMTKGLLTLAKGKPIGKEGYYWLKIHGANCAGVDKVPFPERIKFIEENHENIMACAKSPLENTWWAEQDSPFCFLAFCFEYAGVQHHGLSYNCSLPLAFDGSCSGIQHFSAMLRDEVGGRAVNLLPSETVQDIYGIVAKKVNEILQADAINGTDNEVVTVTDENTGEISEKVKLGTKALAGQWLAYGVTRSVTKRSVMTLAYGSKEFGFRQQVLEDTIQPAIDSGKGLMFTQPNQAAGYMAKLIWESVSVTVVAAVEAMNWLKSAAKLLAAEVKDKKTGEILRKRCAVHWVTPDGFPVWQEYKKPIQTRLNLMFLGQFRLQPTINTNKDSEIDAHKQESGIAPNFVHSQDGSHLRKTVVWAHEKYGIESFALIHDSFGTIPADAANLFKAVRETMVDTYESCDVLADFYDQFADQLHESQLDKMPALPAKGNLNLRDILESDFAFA
Briefly: Site-selective introduction of ryTP into RNA through transcription. In kind it is biochemical. The note with it: for incorporation efficiency of the substrate y into RNA (transcription efficiency): one unnatural base in template (vT or sT), compared to natural base pairing (AT); for transcription efficiency, two y substrates incorporated into RNA: two adjacent unnatural bases in template (NN=vv or NN=ss). The protocol:
This example was intended to study site-selective introduction of ryTP into RNA through transcription reaction. […] The DNA primer required for the transcription reaction had the following sequence.
A template and T7prim21 were mixed in 10 mM Tris-HCl (pH 7.6) containing 10 mM NaCl and annealed into a double-stranded form for use in the transcription reaction (FIG. 14). The T7 transcription reaction was performed on 20 μl scale using an enzyme from TAKARA SHUZO CO., LTD [T. Ohtsuki et al., Proc. Natl. Acad. Sci. USA, 98, 4922-4925 (2001)]. More specifically, the transcription reaction was accomplished by incubation at 37° C. for 3 hours in a reaction solution containing 40 mM Tris-HCl pH 8.0, 5 mM DTT, 24 mM MgCl2, 2 mM spermidine, 0.01% TritonX-100, 10 mM GMP, 1 mM NTPs (N=G, C, U, with or without ryTP, as shown in FIGS. 15 and 16), 2 μCi [α-^32P]ATP, 2 μM double-stranded DNA (template and T7prim21), and 2.5 U/μl T7 RNA polymerase (TaKaRa). If the transcription reaction proceeds completely, an RNA product having the following full-length sequence can be obtained.
The reaction solutions were each supplemented with an equal volume of a 10 M urea-containing BPBdye solution and heated at 75° C. for 3 minutes to stop the reaction, followed by electrophoresis on a 20% polyacrylamide-7 M urea gel to confirm products of the transcription reaction. The [α-^32P]ATP-labeled reaction products were analyzed with a bioimaging analyzer (BAS2500, Fuji Photo Film Co., Ltd., Japan). The incorporation efficiency of the substrate y into RNA when using the sT-containing template in transcription with T7 RNA polymerase (FIG. 14) was about 50% to 60%, as compared to natural base pairing (AT). In contrast, when using the vT-containing template, the incorporation efficiency of the substrate y was 96%, which was as high as that of natural base pairing (FIG. 15).

Assay [2] deals with T3, Klenow fragment (Large Fragment E. coli DNA Polymerase I) (Escherichia coli, UniProt P00582).
T3 construct: purchased TaKaRa
T3 sequence (P00582 324-928): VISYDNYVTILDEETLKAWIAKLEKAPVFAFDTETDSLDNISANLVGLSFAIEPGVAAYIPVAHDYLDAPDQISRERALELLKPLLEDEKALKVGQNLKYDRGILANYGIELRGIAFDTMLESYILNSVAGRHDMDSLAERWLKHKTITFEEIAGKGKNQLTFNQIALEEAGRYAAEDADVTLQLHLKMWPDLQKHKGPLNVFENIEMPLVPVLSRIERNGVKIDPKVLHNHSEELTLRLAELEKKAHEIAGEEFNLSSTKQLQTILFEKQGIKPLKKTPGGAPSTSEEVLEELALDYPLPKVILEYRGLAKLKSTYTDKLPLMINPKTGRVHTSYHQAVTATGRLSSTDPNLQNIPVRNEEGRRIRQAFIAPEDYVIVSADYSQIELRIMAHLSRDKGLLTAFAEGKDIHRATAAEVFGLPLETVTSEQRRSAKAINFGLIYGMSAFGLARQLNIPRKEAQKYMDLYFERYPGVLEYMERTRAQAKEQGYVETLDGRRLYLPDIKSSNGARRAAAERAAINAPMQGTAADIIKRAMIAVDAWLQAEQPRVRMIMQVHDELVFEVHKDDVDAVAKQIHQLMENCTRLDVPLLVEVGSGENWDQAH
The assay is described as follows: Klenow fragment-mediated elongation reaction (replication). Type of assay: biochemical. As to conditions: substrates A; for replication with two adjacent unnatural bases in template (35-mer product): G, y, NN=vv or NN=ss. The text has this:
This example was intended to study selective introduction of y at a site corresponding to v in the complementary DNA strand during Klenow fragment-mediated elongation reaction, rather than single-base incorporation. The reaction primer DNA and template DNA used are shown below.
As in the case of Example 2, the primer was pre-labeled at its 5′-end using […] and then purified by gel electrophoresis. In Experiments 2 and 3, the base y is incorporated as the first base of elongation from the primer. In contrast, in this experiment, v in the template is located at a position corresponding to the severalth base elongated from the primer, and it is therefore possible to study the introduction of y at a site corresponding to v in the complementary DNA strand during elongation reaction.
The template DNA (400 nM) and the primer whose 5′-end was labeled with ^32P (FIG. 11) (400 nM), each of which had been dissolved in 2× reaction buffer (20 mM Tris-HCl pH 7.5, 14 mM MgCl2, 0.2 mM DTT), were heated at 95° C. for 3 minutes and then annealed by quenching to form a duplex. After this duplex DNA solution was dispensed in 5 μl aliquots, 2 μl of a dNTP solution (a combination shown in each lane of FIG. 12 or 13) (50 μM) and 3 μl (0.15 units) of Klenow fragment (KF exo^+; Cloned Klenow Fragment for sequencing (Large Fragment E. coli DNA Polymerase I), purchased from TaKaRa) diluted with water were added to start the enzymatic reaction at 37° C. After incubation for 3 minutes, the enzymatic reaction was stopped by adding 10 μl of a 10 M urea-containing TBE solution and heating at 75° C. for 3 minutes. The reaction conditions are summarized as follows: template/primer 200 nM; KF […] 0.015U/μl; dNTPs 10 μM; reaction at 37° C. for 3 minutes.
Aliquot parts of the reaction solutions were electrophoresed on a 15% polyacrylamide-7 M urea gel and the reaction products were analyzed with a bioimaging analyzer (BAS2500, Fuji Photo Film Co., Ltd., Japan). […]

Assay [3] concerns the target T4, Klenow fragment (KF exo−), DNA polymerase I lacking 3′→5′ exonuclease activity (Escherichia coli, UniProt P00582, D355A/E357A).
T4 construct: Large fragment of DNA polymerase Exonuclease-free Klenow enzyme (Cloned) (Amersham USB); purchased Amersham USB
The assay is described as follows: Klenow fragment-mediated single nucleotide insertion experiment (replication). Type of assay: biochemical, E. coli. The text has this:
In this example, E. coli-derived DNA polymerase I lacking 3′→5′ exonuclease activity, i.e., Klenow fragment (KF exo^−) was used to make a comparison of the efficiency for single nucleotide incorporation during replication (i.e., incorporation of 2-oxo-(1H)pyridine (y) into DNA) between v-y base pair (the present invention) and s-y base pair (control).
More specifically, Large fragment of DNA polymerase Exonuclease-free Klenow enzyme (Cloned) (Amersham USB) and 10× reaction buffer attached thereto (500 mM Tris-HCl pH 7.5, 100 mM MgCl2, 10 mM DTT, 0.5 mg/ml BSA) were used. The enzyme concentration of KF exo^− was determined using a Bio-Rad Protein Assay kit (BioRad) for each lot purchased.
The primer for use in the reaction was pre-labeled at its 5′-end using T4 polynucleotide kinase (TaKaRa) and […], and then purified by gel electrophoresis.
Reaction conditions: a mixed solution of template DNA (20 μM, 1 μl), the primer whose 5′-end was labeled with ^32P (5 μM, 4 μl) and 10× reaction buffer (1 μl) was heated at 95° C. for 3 minutes and then annealed by quenching to form a duplex between the template DNA and the primer. A Klenow fragment solution (1 μM) diluted with enzyme dilution buffer (50 mM phosphate buffer pH 7, 50% glycerol, 1 mM DTT) was added in a volume of 2 μl and incubated at 37° C. for 2 minutes, followed by addition of 2 μl dNTP solution (any one of A, G, C, T or y shown in FIG. 8) (100 μM) to start the reaction. After incubation at 37° C. for 2 minutes, 10 μl of a 10 M urea-containing TBE solution was added and heated at 75° C. for 3 minutes to stop the reaction. The reaction conditions are summarized as follows: template/primer 2 μM; KF exo^− 200 nM; dNTP 20 μM; reaction at 37° C. for 2 minutes.
Aliquot parts of the reaction solutions were electrophoresed on a 20% polyacrylamide-7 M urea gel and the reaction products were analyzed with a bioimaging analyzer (BAS2500, Fuji Photo Film Co., Ltd., Japan).

The mark [4] stands for this setting: template/primer 2 μM, KF exo− 200 nM, dNTP 20 μM, 37° C., 2 minutes.

T4 sequence (P00582 324-928 D355A/E357A): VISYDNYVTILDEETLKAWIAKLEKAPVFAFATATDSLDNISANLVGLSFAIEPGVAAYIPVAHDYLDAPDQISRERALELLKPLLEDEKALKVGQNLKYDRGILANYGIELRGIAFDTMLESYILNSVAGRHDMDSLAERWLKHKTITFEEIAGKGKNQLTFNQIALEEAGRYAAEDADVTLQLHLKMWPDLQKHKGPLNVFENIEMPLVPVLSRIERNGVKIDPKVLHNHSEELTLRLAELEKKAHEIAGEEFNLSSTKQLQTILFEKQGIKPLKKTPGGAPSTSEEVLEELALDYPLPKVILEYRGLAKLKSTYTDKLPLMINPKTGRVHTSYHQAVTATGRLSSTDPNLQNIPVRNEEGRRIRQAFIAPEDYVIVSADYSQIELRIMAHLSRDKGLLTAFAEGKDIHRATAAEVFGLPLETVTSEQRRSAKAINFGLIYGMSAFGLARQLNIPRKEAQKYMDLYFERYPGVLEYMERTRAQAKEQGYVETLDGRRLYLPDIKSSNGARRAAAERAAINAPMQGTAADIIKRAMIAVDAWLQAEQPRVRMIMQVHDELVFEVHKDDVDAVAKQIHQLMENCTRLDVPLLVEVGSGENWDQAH
T1 sequence (P00582 324-928 D355A/E357A): as above

With `Nc1nc(-c2cccs2)c2[nH]cnc2n1` [s, 2-amino-6-thienylpurine, reference compound], the “efficiency (Vmax/Km)” value in assay [1] (N′ = A) is reported as 3.0 × 10^3 % min^−1M^−1; in assay [1] (N′ = C) it was 2.5 × 10^4 % min^−1M^−1; in assay [1] (N′ = T) it was 9.4 × 10^3 % min^−1M^−1; in assay [1] (N′ = y) it was 3.6×10^4 % min^−1M^−1. Also, the Km (usually the substrate concentration at which the rate is half of its maximum) in assay [1] (N′ = A, SD in parentheses) came out at 86 µM; in assay [1] (N′ = C, SD in parentheses), 590 µM; in assay [1] (N′ = T, SD in parentheses), 320 µM; in assay [1] (nucleoside triphosphate N′ = y, standard deviation in parentheses) it was 260 µM. Moreover, the Vmax is recorded as 0.26(0.06) % min^−1 in assay [1] (N′ = A, SD in parentheses); 15(5) % min^−1 in assay [1] (N′ = C, SD in parentheses); 3.0(0.3) % min^−1 in assay [1] (N′ = T, SD in parentheses); 9.4(2.5) % min^−1 in assay [1] (N′ = y, SD in parentheses). Moreover, the “incorporation efficiency of the substrate y into RNA (transcription efficiency)” value at T7 RNA polymerase is 50-60%. Moreover, the “transcription efficiency, two y substrates incorporated into RNA” value on T7 RNA polymerase is “no RNA incorporating two y was obtained”. The “replication with two adjacent unnatural bases in template (35-mer product)” value in assay [2] was “little 35-mer product was obtained; also recorded: little incorporation of y”.
In the case of `Nc1nc(-c2nccs2)c2[nH]cnc2n1` [v, 2-amino-6-(2-thiazolyl)purine], the “incorporation efficiency of y opposite v relative to y opposite s” value in assay [1] (ratio of Vmax/Km) is “about 4 fold”. Moreover, the “incorporation efficiency of y opposite v relative to C incorporation” value in assay [1] (selectivity, ratio of Vmax/Km) is given as “about 3 fold”. Moreover, the “incorporation efficiency of y opposite v relative to T incorporation” value in assay [1] (selectivity, ratio of Vmax/Km) was no less than 20 fold. Moreover, the “efficiency (Vmax/Km)” value in assay [1] (N′ = A) is given as 3.3 × 10^3 % min^−1M^−1; in assay [1] (N′ = C), 4.1×10^4 % min^−1M^−1; in assay [1] (N′ = T), 5.1×10^3 % min^−1M^−1; in assay [1] (N′ = y), 1.4×10^5 % min^−1M^−1. In addition, the Vmax is recorded as 0.36(0.08) % min^−1 in assay [1] (N′ = A, SD in parentheses); 22(5) % min^−1 in assay [1] (N′ = C, SD in parentheses); 2.0(0.7) % min^−1 in assay [1] (N′ = T, SD in parentheses); 40(21) % min^−1 in assay [1] (N′ = y, SD in parentheses). The “incorporation efficiency of the substrate y into RNA (transcription efficiency)” value at T7 RNA polymerase is recorded as 96%. In addition, the “transcription efficiency, two y substrates incorporated into RNA” value at T7 RNA polymerase is given as “about 30%”. The “replication efficiency in elongation reaction (35-mer band intensity)” value in assay [2] (G and y, one unnatural base in template (NN=vT vs NN=sT)) is reported as “higher replication efficiency than the s-y base pair”. In assay [2], the “replication with two adjacent unnatural bases in template (35-mer product)” value is reported as “allows replication to proceed”. In addition, the “incorporation selectivity opposite y” value in assay [3] (compared with s) is listed as “comparable to the selectivity of s”. Moreover, the “incorporation of C opposite the template base” value in assay [3] (setting [4]) is listed as “also incorporated although in a small amount”. The “incorporation of y at the site corresponding to the template base” value in assay [3] (setting [4]) is given as “selectively incorporated”.

Values taken from patent US20110087015A1, “Nucleoside and nucleotide having an unnatural base and use thereof” (priority 2003, published 2011).
